Laboratory results as given in paper PMC3867380, “Fluorescence Imaging-Based High-Throughput Screening of Fast- and Slow-Cycling LOV Proteins” (PLoS ONE, 2013).

Legend:
[1] = target: T1, AsLOV2 (second LOV domain of Avena sativa phototropin 1) (Avena sativa, UniProt O49003); experiment: absorption and fluorescence spectra of co-purified flavin; photoadduct formation and dark recovery at […] nm; type: binding; conditions: room temperature; pH 7.5; flavin co-purified from E. coli; blue-light-induced reversible covalent adduct with Cys450
T1 construct: gene NPH1-1; LOV2 domain with J-alpha helix, residues 404-560; N-terminal 6xHis tag; synthetic cDNA with mammalian codons in pCold I; E. coli DH5alpha; TALON purified

[2] = target: T2, AsLOV2 (second LOV domain of Avena sativa phototropin 1) (Avena sativa, UniProt O49003, V416T/T418S); experiment: flavin fluorescence recovery imaging in E. coli colonies after blue light; type: cell-based; conditions: colonies on agar, on ice and 25 °C; endogenous flavin; blue-light-induced reversible covalent adduct
T2 construct: gene NPH1-1; LOV2 domain with J-alpha helix, residues 404-560; N-terminal 6xHis tag; synthetic cDNA with mammalian codons in pCold I; E. coli DH5alpha; TALON purified

[3] = target: T3, AsLOV2 (second LOV domain of Avena sativa phototropin 1) (Avena sativa, UniProt O49003, V416C/T418P/N425P/I466V/F494K); experiment: as above; type: cell-based; conditions: colonies on agar, 50 °C and 25 °C; endogenous flavin; blue-light-induced reversible covalent adduct
T3 construct: gene NPH1-1; LOV2 domain with J-alpha helix, residues 404-560; N-terminal 6xHis tag; synthetic cDNA with mammalian codons in pCold I; E. coli DH5alpha; TALON purified

[4] = target: T4, AsLOV2 (second LOV domain of Avena sativa phototropin 1) (Avena sativa, UniProt O49003, N425Q/I427V); experiment: as above; type: cell-based; conditions: colonies on agar, on ice and 25 °C; endogenous flavin; blue-light-induced reversible covalent adduct
T4 construct: gene NPH1-1; LOV2 domain with J-alpha helix, residues 404-560; N-terminal 6xHis tag; synthetic cDNA with mammalian codons in pCold I; E. coli DH5alpha; TALON purified

[5] = target: T5, AsLOV2 (second LOV domain of Avena sativa phototropin 1) (Avena sativa, UniProt O49003, N425S/I427L/I466M); experiment: as above; type: cell-based; conditions: colonies on agar, on ice and 25 °C; endogenous flavin; blue-light-induced reversible covalent adduct
T5 construct: gene NPH1-1; LOV2 domain with J-alpha helix, residues 404-560; N-terminal 6xHis tag; synthetic cDNA with mammalian codons in pCold I; E. coli DH5alpha; TALON purified
T5 sequence (O49003 entry or part of it N425S/I427L/I466M): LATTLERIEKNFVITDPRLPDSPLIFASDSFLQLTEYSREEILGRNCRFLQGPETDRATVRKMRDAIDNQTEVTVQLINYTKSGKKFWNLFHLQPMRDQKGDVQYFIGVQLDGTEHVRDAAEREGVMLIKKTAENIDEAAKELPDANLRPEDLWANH

T2 sequence (O49003 entry or part of it V416T/T418S): as the sequence (O49003 entry or part of it N425S/I427L/I466M) above, with V13T, T15S, S22N, L24I, M63I counted along it
T4 sequence (O49003 entry or part of it N425Q/I427V): as the sequence (O49003 entry or part of it N425S/I427L/I466M) above, with S22Q, L24V, M63I counted along it
T3 sequence (O49003 entry or part of it V416C/T418P/N425P/I466V/F494K): as the sequence (O49003 entry or part of it N425S/I427L/I466M) above, with V13C, T15P, S22P, L24I, M63V, F91K counted along it
T1 sequence (O49003 entry or part of it): as the sequence (O49003 entry or part of it N425S/I427L/I466M) above, with S22N, L24I, M63I counted along it

With `Cc1cc2nc3c(=O)[nH]c(=O)nc-3n(C[C@H](O)[C@H](O)[C@H](O)COP(=O)(O)O)c2cc1C` [FMN] the “absorption and fluorescence spectra of co-purified flavin; photoadduct formation” value [1] was “AsLOV2 is a photosensory domain that binds with FMN as a cofactor”, the “flavin fluorescence recovery imaging in E. coli colonies after blue light” value (from here on “flavin fluorescence recovery imaging”) [2] was “V416T/T418S exhibited particularly faster thermal reversion kinetics than others” and the “flavin fluorescence recovery imaging” value [3] was “AsLOV2-V416L and AsLOV2-V416C/T418P/N425P/I466V/F494K exhibited particularly slower thermal reversion kinetics than others”. The “flavin fluorescence recovery imaging” value [4] was “substitution of V416T, N425Q/I427V, N425S/I427L/I466M and V416T/T418S exhibited particularly faster thermal reversion kinetics” and the “flavin fluorescence recovery imaging” value [5] was “substitution of V416T, N425Q/I427V, N425S/I427L/I466M and V416T/T418S exhibited particularly faster thermal reversion kinetics”.
